Measured values reported in patent US20240199546A1, “INHIBITORS OF SOLUTE CARRIER FAMILY 6A MEMBER 19 (SLC6A19) AND METHODS OF USE THEREOF” (Maze Therapeutics, Inc., priority 2022, published 2024).

Key:
human SLC6A19 and TMEM27 [1] = molecular target: T1, human SLC6A19 and TMEM27 (Homo sapiens, UniProt Q695T7); assay: Radiolabelled (3H) leucine uptake in CHO cells with doxycycline-inducible expression of human SLC6A19 and TMEM27 (Example B-1); format: cell-based; conditions: CHO cells with doxycycline-inducible expression of human SLC6A19 and TMEM27, read-out: SLC6A19_Radioligand Uptake Assay IC50
T1 construct: expressed in transfected cells
T1 sequence (Q695T7 1-634): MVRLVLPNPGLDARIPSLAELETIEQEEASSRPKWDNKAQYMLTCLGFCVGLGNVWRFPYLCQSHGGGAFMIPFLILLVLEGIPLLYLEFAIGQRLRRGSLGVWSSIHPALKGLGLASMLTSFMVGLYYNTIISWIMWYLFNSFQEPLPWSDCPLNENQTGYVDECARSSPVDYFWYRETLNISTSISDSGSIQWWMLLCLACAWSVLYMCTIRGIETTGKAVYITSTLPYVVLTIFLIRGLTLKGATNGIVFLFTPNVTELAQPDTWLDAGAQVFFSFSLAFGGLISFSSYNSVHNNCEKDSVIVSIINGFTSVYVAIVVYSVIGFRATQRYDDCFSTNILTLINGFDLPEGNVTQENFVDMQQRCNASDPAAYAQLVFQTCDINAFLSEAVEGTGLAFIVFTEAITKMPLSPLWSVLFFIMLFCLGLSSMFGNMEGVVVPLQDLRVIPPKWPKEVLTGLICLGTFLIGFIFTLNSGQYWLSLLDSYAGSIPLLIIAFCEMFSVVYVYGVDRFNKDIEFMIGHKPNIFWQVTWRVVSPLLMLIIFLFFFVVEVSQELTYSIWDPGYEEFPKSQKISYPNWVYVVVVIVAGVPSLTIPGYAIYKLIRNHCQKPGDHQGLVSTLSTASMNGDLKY
T1 sequence (Q9HBJ8 15-222 partner): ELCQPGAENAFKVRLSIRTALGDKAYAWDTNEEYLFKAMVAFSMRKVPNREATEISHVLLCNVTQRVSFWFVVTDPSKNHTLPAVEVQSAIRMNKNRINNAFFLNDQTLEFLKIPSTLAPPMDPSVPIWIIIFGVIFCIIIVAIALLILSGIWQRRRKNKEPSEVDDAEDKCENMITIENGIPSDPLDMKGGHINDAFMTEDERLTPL
Procedure, shortened: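 CHO cells were induced with doxycycline for 18 h at 37 °C, washed in HBSS, then exposed to compounds for 1 h: 8-point, 3-fold dilutions in duplicate, 0.5% DMSO final. Uptake measured by scintillation counting after 2 h shaking. Activity normalized with positive control as 0% and DMSO as 100%.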

human SLC6A19 and TMEM27 [2] = molecular target: T1, human SLC6A19 and TMEM27; assay: 13C6,15N-isoleucine uptake in CHO cells with doxycycline-inducible expression of human SLC6A19 and TMEM27, RapidFire mass spectrometry (Example B-2); format: cell-based; conditions: read-out: SLC6A19_RapidFire Uptake Assay IC50
Procedure, shortened: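 CHO cells induced overnight with doxycycline to express human SLC6A19 plus TMEM27; 20 min preincubation with compound (10-point 2-fold series, duplicate) at 37 °C in HEPES buffer pH 7.2, then 20 min with 13C6,15N-isoleucine. Intracellular label quantified by RapidFire MS against 13C-leucine standard; positive control defined 100% inhibition.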

Row | IC50 (human SLC6A19 and TMEM27 [1]) [µM] | IC50 (human SLC6A19 and TMEM27 [2]) [µM] | Compound
1 | 0.0694 | 0.0275 | CC(=O)NCc1cc2cc(Cl)c(OCc3cc(C)no3)cc2[nH]1 [Compound 218, N-((5-chloro-6-((3-methylisoxazol-5-yl)methoxy)-1H-indol-2-yl)methyl)acetamide]
2 | 0.203 | 0.796 | CC(=O)NCc1cc2cc(F)c(OCc3cc(C)no3)cc2[nH]1 [Compound 223, N-((5-fluoro-6-((3-methylisoxazol-5-yl)methoxy)-1H-indol-2-yl)methyl)acetamide]
3 | 0.152 | 0.046 | CC1(C(=O)NCc2cc3cc(Cl)c(OCc4cccs4)cc3[nH]2)CC1 [Compound 65, N-((5-chloro-6-(thiophen-2-ylmethoxy)-1H-indol-2-yl)methyl)-1-methylcyclopropane-1-carboxamide]
4 | 0.078 | 0.024 | CC1(C(=O)NCc2cc3cc(Cl)c(OCc4ccoc4)cc3[nH]2)CC1 [Compound 64, N-((5-chloro-6-(furan-3-ylmethoxy)-1H-indol-2-yl)methyl)-1-methylcyclopropane-1-carboxamide]
5 | 0.0709 | 0.0268 | CCC(=O)NCc1cc2cc(Cl)c(OCc3cc(C)no3)cc2[nH]1 [Compound 438, N-((5-chloro-6-((3-methylisoxazol-5-yl)methoxy)-1H-indol-2-yl)methyl)propionamide]
6 | 0.201 | 0.397 | CC1(C(=O)NCc2cc3cc(Cl)c(OCc4cc(C5CC5)on4)cc3[nH]2)CC1 [Compound 100, N-((5-chloro-6-((5-cyclopropylisoxazol-3-yl)methoxy)-1H-indol-2-yl)methyl)-1-methylcyclopropane-1-carboxamide]
7 | 2.83 | 1.62 | CC1(C(=O)NCc2cc3cc(Cl)c(OCc4cc5ccccn5n4)cc3[nH]2)CC1 [Compound 392, N-((5-chloro-6-(pyrazolo[1,5-a]pyridin-2-ylmethoxy)-1H-indol-2-yl)methyl)-1-methylcyclopropane-1-carboxamide]
8 | 3.16 | 2.48 | Cc1cc(COc2c(Cl)cc3cc(CNC(=O)C4(C)CC4)[nH]c3c2Cl)no1 [Compound 343, N-((5,7-dichloro-6-((5-methylisoxazol-3-yl)methoxy)-1H-indol-2-yl)methyl)-1-methylcyclopropane-1-carboxamide]
9 | 0.619 | 0.593 | O=C(NCc1cc2cc(Cl)c(NCc3ccon3)cc2[nH]1)N1CCC1 [Compound 407, N-((5-chloro-6-((isoxazol-3-ylmethyl)amino)-1H-indol-2-yl)methyl)azetidine-1-carboxamide]
10 | 0.159 | 0.0902 | Cn1ncc(COc2cc3[nH]c(CNC(=O)C4CC4)cc3cc2Cl)n1 [Compound 498, N-((5-chloro-6-((2-methyl-2H-1,2,3-triazol-4-yl)methoxy)-1H-indol-2-yl)methyl)cyclopropanecarboxamide]
11 | 0.137 | 0.0686 | O=C(NCc1cc2cc(F)c(OCc3cscn3)cc2[nH]1)C1CCC1 [Compound 430, N-((5-fluoro-6-(thiazol-4-ylmethoxy)-1H-indol-2-yl)methyl)cyclobutanecarboxamide]
12 | 0.307 | 0.275 | CC1(C(=O)NCc2cc3cc(Cl)c(OCc4cncs4)cc3[nH]2)CC1 [Compound 177, N-((5-chloro-6-(thiazol-5-ylmethoxy)-1H-indol-2-yl)methyl)-1-methylcyclopropane-1-carboxamide]
13 | 0.07 | 0.032 | CCC(=O)NCc1cc2cc(Cl)c(OCc3cc(C)on3)cc2[nH]1 [Compound 128, N-((5-chloro-6-((5-methylisoxazol-3-yl)methoxy)-1H-indol-2-yl)methyl)propionamide]
14 | 0.82 | 0.609 | O=C(NCc1cc2cc(F)c(CCc3ccon3)cc2[nH]1)N1CCC1 [Compound 602, N-((5-fluoro-6-(2-(isoxazol-3-yl)ethyl)-1H-indol-2-yl)methyl)azetidine-1-carboxamide]
